In publication PMC4502414, “Transforming berberine into its intestine-absorbable form by the gut microbiota” (Scientific Reports, 2015):
“Also recorded” adds a separate entry of the source.

Columns and labels:
[1] = Distribution of dhBBR in organs of SD rats orally treated with BBR; format: in vivo; conditions: 24 h after oral BBR 200 mg/kg
Protocol: Three segments of small intestine (duodenum, jejunum and ileum) were collected 0, 6, 12, 24, 36, and 48 h after the oral administration of BBR in SD rats. The small intestine tissues were washed thoroughly with saline and dried. After being weighed, the samples were homogenized with mixed solution (ethanol: water, 1:1) at a ratio of 1:2 [w(g)/v(ml)]. The samples were centrifuged at 7,500 g for 10 min, and the supernatant was collected and evaporated to dryness in a water bath at 40 °C using a rotary evaporator. The residues of the tissue extraction were dissolved in methanol (250 μl) and vortex-mixed for 5 min. The tissue solution was then centrifuged (at 14,000 g for 5 min), and the supernatant was passed through a 0.22-μm filter. An aliquot of 1 μl of the supernatant was injected into the GC-MS instrument, and a 10-μl aliquot was used for LC-MS/MS analysis. The level of dhBBR was calculated based on the standard curve, and BBR and other metabolites was quantified using the method described above.

[2] = Excretion of BBR, dhBBR and other BBR metabolites in rat feces, urine and bile after oral BBR; format: in vivo, SD rats
Protocol: For the analysis of the in vivo intestinal metabolites of BBR, six SD rats were orally treated with BBR (200 mg/kg), and their feces were collected 0, 6, 12, 24, 36, 48, and 72 h after treatment. The method used for the preparation of the feces was reported previously. An aliquot of 1 μl was injected into the GC-MS instrument. The level of dhBBR in feces was measured and calculated based on the standard curve obtained with the in vitro intestinal bacteria incubation mixture.

[3] = Effect of heat inactivation and vitamin C on dhBBR-to-BBR transformation in rat small intestine homogenate; format: in vitro ADME; conditions: homogenate boiled for 2 min
Protocol: The rats (n = 3) were sacrificed to obtain fresh small intestine homogenate. The homogenate was then boiled for 2 min to inactivate all of the enzymes. After pre-incubation at 37 °C for 2 min, 5 μl of dhBBR (10 mM, dissolved in DMSO) was added into the inactivated homogenate, and fresh homogenate (active one) was used as a reference. The sample was mixed thoroughly and centrifuged at 16,000 g for 5 min. The supernatant was transferred into new tubes, treated with 500 μl of acetonitrile, and then centrifuged. Twenty-microliter aliquots were used for the HPLC analysis.
To examine the oxidative reaction, 100 μl of vitamin C was pre-incubated with the inactivated homogenate; the final concentrations of vitamin C were 95, 9.5 and 0.95 mM. The superoxide anion in the sample was detected with an O2^− ELISA kit (Beijing Biolab Co., Ltd., Beijing, China; lot: 201404) following the manufacturer’s instructions.

[4] = test system: LDLR; assay: Drug effect on hepatic LDLR gene expression in HepG2 cells; format: cell-based, human; conditions: 12 h
Protocol: The HepG2 human hepatoma cell line was obtained from the American Tissue Culture Collection (ATCC, USA) and grown in Eagle’s Minimum Essential Medium (GIBCO) supplemented with 10% fetal bovine serum (GIBCO) at 37 °C. For the drug efficacy test, HepG2 cells were cultured for 24 h and then treated with BBR or dhBBR for 12 h. The compounds were freshly prepared in medium prior to use.
The total cellular RNAs were isolated with the SV Total RNA Isolation System (Promega, Madison, WI, USA) following the vendor’s instructions. The total RNAs were reversely transcribed into cDNAs, and quantitative real-time PCR was performed using a 2-Step RT-qPCR System (Promega, Madison, WI, USA), with GAPDH as an internal control. The normalized LDLR mRNA expression levels were plotted as fold levels compared with the untreated control. The following primers were used: LDLR forward, […]; LDLR reverse, […]; GAPDH forward, […]; and GAPDH reverse, […].

[5] = molecular target: T1, MAO-B (Rattus norvegicus, UniProt P19643); conditions: intestinal homogenate, 30 min, no inhibitor
T1 sequence (P19643 1-520): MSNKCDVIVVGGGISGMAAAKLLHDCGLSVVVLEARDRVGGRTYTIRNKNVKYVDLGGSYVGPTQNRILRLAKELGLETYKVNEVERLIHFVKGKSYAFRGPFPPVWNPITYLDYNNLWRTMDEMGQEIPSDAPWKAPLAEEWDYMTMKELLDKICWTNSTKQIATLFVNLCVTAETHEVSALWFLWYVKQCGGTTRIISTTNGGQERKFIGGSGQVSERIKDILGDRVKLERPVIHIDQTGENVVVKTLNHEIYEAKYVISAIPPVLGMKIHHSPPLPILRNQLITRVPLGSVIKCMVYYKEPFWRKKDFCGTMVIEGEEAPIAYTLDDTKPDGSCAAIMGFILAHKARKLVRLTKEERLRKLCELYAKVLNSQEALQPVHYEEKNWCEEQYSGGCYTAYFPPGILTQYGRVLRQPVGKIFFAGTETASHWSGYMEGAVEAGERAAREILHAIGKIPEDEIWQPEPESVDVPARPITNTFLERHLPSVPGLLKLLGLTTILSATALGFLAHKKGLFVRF

[6] = 72-h cumulative fecal excretion of BBR and dhBBR in pseudo germ-free (PGF) and conventional rats; format: in vivo, SD rats; conditions: oral BBR 200 mg/kg
Protocol: Male SD rats (180–200 g) were orally treated with cefadroxil (100 mg/kg), terramycin (300 mg/kg) and erythromycin (300 mg/kg) twice a day for 3 days, and pharmacokinetic examination was performed 2 days after final administration. The colon contents of the rats were collected on the first and third days after the final treatment with antibiotics, and the germ-free status was confirmed by culturing fecal samples aerobically on a nutrient agar culture medium. Fecal samples from non-antibiotic-exposed rats served as control samples. Before oral administration of a single dose of BBR (200 mg/kg), the PGF rats were fasted overnight with free access to water. […] The samples were stored at −20 °C for further analysis.

[7] = molecular target: T2, monoamine oxidase-B (MAO-B) (Homo sapiens, UniProt P27338); conditions: cell-free system, dhBBR 100 μM, 30 min
T2 sequence (P27338 1-520): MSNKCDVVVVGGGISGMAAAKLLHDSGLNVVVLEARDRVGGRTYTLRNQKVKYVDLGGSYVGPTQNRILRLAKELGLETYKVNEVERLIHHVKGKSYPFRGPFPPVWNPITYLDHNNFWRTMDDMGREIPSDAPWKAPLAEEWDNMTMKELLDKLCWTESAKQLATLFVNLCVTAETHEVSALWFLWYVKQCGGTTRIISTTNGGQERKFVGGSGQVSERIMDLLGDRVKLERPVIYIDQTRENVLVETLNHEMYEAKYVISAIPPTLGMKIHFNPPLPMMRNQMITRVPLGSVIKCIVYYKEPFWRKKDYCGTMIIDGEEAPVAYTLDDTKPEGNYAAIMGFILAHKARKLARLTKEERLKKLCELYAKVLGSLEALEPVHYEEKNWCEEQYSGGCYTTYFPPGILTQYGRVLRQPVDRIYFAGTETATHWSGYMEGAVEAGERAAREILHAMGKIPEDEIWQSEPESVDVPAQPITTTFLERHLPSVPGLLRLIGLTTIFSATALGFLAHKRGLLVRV

## COc1ccc2c(c1OC)CN1CCc3cc4c(cc3C1=C2)OCO4 [dhBBR, dihydroberberine]
[1]
  organs in which dhBBR was detected: detected in intestinal tissue only
[2]; after oral BBR
  time of peak amount of dhBBR in feces: 12 to 24 h
[2]; oral BBR, 72-h period, urine, bile and feces
  detection of dhBBR in rat excretions: detected only in feces
[3]
  effect of heat inactivation of homogenate on dhBBR-to-BBR reversion: did not reduce the dhBBR-to-BBR reversion
[4]
  up-regulation of LDLR mRNA expression compared with BBR: Reduced effect; also recorded: much lower than that of BBR
[5]
  dhBBR-to-BBR reversion: complete
[6]; PGF rats
  72-h-cumulative dhBBR in feces, % of the giving amount of BBR: 6.09%
[6]; untreated (conventional) rats
  72-h-cumulative dhBBR in feces, % of the giving amount of BBR: 18.21%
[7]
  reversion from dhBBR to BBR attributable to MAO-B: approximately 10%
